Assay results as given in PMC12385147, “Discovery of Novel 2-Substituted Aniline Pyrimidine Based Derivatives as Potent Mer/c-Met Dual Inhibitors with Improvement Bioavailability” (Biomolecules, 2025).
Read-outs that look alike come from different tables or passages of the source.

Key:
[1] = cited from earlier work
[2] = cited from earlier work; remark: listed apart in the source
[3] = cited from earlier work; remark: listed apart in the source
[4] = tested on: xenograft models; set-up: method as in PMID 29554921; conditions: cited from earlier work
[5] = Plasma protein binding, equilibrium dialysis, rat plasma; type: in vitro ADME; conditions: 1 μM
[6] = tested on: MDA-MB-231; test: Antiproliferation CCK-8 assay, MDA-MB-231; type: cell-based; conditions: Homo sapiens, CCK-8, 72 h
Experimental: (§1) The HepG2, MDA-MB-231, and HCT116 cell lines were derived from our own laboratory (the laboratory of our collaborator, Dr. Xiaolei Zhou, at College of Food Science and Biology in Hebei University of Science and Technology). The antiproliferative activities were assessed using the CCK-8 assay. Cell viability was measured according to the manufacturer’s instructions for the Cell Counting Kit-8 (Meilunbio, Dalian, China). In this assay, 2.5 × 10^3 cells per well were seeded into 96-well plates.
(§2) After an initial 12 h incubation, cancer cells were exposed to varying concentrations of compound 17c for 72 h. Following CCK-8 solution addition and 2 h incubation, the absorbance at 450 nm was measured using a BioTek Synergy HTX microplate reader. Experiments included triplicate wells with three independent replicates. The IC50 values for compound 17c were derived from an analysis of the dose–response curves in GraphPad PRISM 9.5.

[7] = tested on: HCT116; test: Antiproliferation CCK-8 assay, HCT116; type: cell-based; conditions: Homo sapiens, HCT-116; CCK-8, 72 h; read-out: IC50 HCT116
Experimental: as §1, §2

[8] = tested on: HepG2; test: Antiproliferation CCK-8 assay, HepG2; type: cell-based; conditions: Homo sapiens, CCK-8, 72 h
Experimental: as §1, §2

[9] = target: T1, Mer kinase (Homo sapiens, UniProt Q12866); test: Mer kinase inhibition assay (TK-Sub-Biotin / cryptate detection); type: biochemical; conditions: for IC50: means from three independent experiments
T1 construct: purchased Invitrogen (Shanghai, China)
T1 sequence (Q12866 21-999): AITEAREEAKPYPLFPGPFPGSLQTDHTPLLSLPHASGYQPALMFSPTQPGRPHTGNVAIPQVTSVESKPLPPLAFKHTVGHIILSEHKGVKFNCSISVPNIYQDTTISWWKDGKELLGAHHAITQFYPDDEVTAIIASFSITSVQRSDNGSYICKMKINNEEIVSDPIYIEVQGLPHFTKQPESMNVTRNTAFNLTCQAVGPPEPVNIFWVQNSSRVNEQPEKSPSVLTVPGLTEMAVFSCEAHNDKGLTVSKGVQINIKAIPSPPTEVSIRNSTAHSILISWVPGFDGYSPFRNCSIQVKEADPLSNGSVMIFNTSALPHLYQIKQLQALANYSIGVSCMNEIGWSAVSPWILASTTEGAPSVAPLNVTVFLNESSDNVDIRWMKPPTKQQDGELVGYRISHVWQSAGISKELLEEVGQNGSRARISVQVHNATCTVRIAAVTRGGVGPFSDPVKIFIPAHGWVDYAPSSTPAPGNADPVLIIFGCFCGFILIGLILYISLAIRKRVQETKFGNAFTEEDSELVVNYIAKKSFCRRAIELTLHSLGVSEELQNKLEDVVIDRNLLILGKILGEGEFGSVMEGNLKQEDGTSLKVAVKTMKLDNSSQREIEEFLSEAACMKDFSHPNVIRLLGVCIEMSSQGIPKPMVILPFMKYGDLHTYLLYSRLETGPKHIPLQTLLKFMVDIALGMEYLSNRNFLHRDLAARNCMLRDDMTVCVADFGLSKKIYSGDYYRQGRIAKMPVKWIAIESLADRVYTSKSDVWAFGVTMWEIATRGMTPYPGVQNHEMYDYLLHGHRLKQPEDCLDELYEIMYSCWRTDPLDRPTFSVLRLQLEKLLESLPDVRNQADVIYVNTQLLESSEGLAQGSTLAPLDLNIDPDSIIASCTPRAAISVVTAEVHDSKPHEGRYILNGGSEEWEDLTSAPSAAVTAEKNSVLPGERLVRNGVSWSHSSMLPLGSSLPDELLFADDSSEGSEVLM

[10] = target: T2, c-Met kinase (Homo sapiens, UniProt P08581); test: c-Met kinase inhibition assay (TK-Sub-Biotin / cryptate detection); type: biochemical; conditions: for IC50: means from three independent experiments
T2 construct: purchased Invitrogen (Shanghai, China)

[11] = Liver microsome stability assay; type: in vitro ADME, human; conditions: human, liver microsomes, pH 7.4, human liver microsomes; for microsomal CLint: read-out: CL (intrinsic clearance)

T2 sequence (P08581 25-1390): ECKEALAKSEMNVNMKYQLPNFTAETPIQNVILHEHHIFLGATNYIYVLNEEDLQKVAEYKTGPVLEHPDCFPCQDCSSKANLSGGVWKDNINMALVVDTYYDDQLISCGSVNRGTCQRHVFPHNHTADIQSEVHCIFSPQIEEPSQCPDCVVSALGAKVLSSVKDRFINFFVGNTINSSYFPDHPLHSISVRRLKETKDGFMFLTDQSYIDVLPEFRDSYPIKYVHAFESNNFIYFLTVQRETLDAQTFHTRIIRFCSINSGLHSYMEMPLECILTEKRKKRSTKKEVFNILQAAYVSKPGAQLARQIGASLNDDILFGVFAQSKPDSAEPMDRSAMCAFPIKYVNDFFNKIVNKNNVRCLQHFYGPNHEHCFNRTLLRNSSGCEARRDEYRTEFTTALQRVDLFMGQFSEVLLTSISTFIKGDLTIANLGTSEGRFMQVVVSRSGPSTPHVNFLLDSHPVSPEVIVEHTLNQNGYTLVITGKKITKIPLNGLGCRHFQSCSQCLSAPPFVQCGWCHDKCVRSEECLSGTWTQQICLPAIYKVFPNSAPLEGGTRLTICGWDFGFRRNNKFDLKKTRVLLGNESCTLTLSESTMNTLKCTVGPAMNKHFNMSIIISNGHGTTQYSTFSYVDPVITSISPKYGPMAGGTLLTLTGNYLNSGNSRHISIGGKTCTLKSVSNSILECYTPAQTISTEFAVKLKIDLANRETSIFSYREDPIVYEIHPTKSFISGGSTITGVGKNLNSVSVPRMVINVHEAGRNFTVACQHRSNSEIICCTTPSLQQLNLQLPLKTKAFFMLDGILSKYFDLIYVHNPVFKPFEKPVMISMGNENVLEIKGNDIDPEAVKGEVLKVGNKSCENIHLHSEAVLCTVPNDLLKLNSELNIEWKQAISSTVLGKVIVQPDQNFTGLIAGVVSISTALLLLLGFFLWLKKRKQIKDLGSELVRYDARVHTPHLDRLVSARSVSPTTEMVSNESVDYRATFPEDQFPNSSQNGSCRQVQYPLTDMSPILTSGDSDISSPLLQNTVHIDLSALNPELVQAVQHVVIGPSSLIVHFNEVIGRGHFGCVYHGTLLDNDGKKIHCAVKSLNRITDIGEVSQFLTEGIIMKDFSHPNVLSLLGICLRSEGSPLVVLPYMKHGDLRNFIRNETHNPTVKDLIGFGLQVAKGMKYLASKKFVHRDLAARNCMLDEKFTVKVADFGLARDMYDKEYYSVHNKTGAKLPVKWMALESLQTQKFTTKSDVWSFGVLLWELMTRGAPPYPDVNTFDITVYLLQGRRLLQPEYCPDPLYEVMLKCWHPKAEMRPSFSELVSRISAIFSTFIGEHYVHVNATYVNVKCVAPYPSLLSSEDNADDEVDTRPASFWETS

| IC50 [9] | IC50 [10] | half-life [11] | microsomal CLint [11] | SMILES | also measured |
| --- | --- | --- | --- | --- | --- |
| – | – | – | – | CN1CCN(Cc2ccc(-c3cn([C@H]4CC[C@H](O)CC4)c4nc(NCCC5CC5)ncc34)cc2)CC1 [MRX2843] | brain/plasma ration ([1]; CNS penetration): 0.4 |
| – | – | – | – | CCCCNc1ncc2c(-c3ccc(F)cc3)nn(CC3CCC(N)CC3)c2n1 (centres unmarked) [UNC569] | human microsomal t1/2 [2]: < 15 min; oral bioavailability F [1]: < 10% |
| – | – | – | – | CCCCNc1ncc2c(-c3ccc(CN4CCN(C)CC4)cc3)cn([C@H]3CC[C@H](O)CC3)c2n1 [UNC2025] | t1/2 in human hepatocytes [3]: 68 min |
| – | – | – | – | CCCCNc1ncc(-c2ccc(CN3CCOCC3)cn2)c(N[C@H]2CC[C@H](O)CC2)n1 [UNC2250] | tumor volume reduction vs. control [4]: ~ 60% |
| – | – | – | – | CC(=O)CC(c1ccccc1)c1c(O)c2ccccc2oc1=O (centres unmarked) [Warfarin, reference compound] | Mean Fb [5]: 99.0% |
| – | – | – | – | COc1cc2nccc(Oc3ccc(NC(=O)C4(C(=O)Nc5ccc(F)cc5)CC4)cc3)c2cc1OC [cabozantinib, reference compound] | IC50 [6]: 4.62 ± 0.54 µM; IC50 [7]: 15.6 ± 4.39 µM; IC50 [8]: 7.87 ± 2.11 µM |
| 24.3 ± 5.7 nM | 25.9 ± 7.7 nM | 38.3 min | 90.5 µL/min/mg | COCCNc1cccc(Nc2nccc(Oc3ccc(NC(=O)C4(C(=O)Nc5ccc(F)cc5)CC4)cc3)n2)c1 [compound 13b] | – |
| 7.5 ± 1.6 nM | 7.5 ± 1.1 nM | 30.4 min | 114 µL/min/mg | CC(=O)N1CCN(c2cccc(Nc3nccc(Oc4ccc(NC(=O)C5(C(=O)Nc6ccc(F)cc6)CC5)cc4)n3)c2)CC1 [compound 13e] | fold improvement over 18c, Mer IC50 [9]: 2.5 fold; fold improvement over 18c, c-Met IC50 [10]: 4.5 fold |
| 13.1 ± 2.1 nM | 48.6 ± 11.2 nM | 27.9 min | 152 µL/min/mg | CN(C)CCNCC(=O)Nc1ccc(Nc2nccc(Oc3ccc(NC(=O)C4(C(=O)Nc5ccc(F)cc5)CC4)cc3)n2)cc1 [compound 13j] | – |
| 37.3 ± 10.6 nM | 35.4 ± 10 nM | 38.4 min | 124 µL/min/mg | COCCN1CCN(CC(=O)Nc2ccc(Nc3nccc(Oc4ccc(NC(=O)C5(C(=O)Nc6ccc(F)cc6)CC5)cc4)n3)cc2)CC1 [compound 13k] | – |
| 69.8 ± 12.5 nM | 236 ± 25.6 nM | – | – | CC(=O)N1CCN(c2ccc(Nc3nccc(Oc4ccc(NC(=O)c5c(C)n(C)n(-c6ccccc6)c5=O)cc4)n3)cc2)CC1 [compound 17e, N-(4-((2-((4-(4-acetylpiperazin-1-yl)phenyl)amino)pyrimidin-4-yl)oxy)phenyl)-1,5-dimethyl-3-oxo-2-phenyl-2,3-dihydro-1H-pyrazole-4-carboxamide] | – |
| 5.5 ± 0.8 nM | 25 ± 3.5 nM | 51 min | 68 µL/min/mg | CC(=O)N1CCN(c2cccc(Nc3nccc(Oc4ccc(NC(=O)c5c(C)n(C)n(-c6ccccc6)c5=O)cc4)n3)c2)CC1 [compound 17f, N-(4-((2-((3-(4-acetylpiperazin-1-yl)phenyl)amino)pyrimidin-4-yl)oxy)phenyl)-1,5-dimethyl-3-oxo-2-phenyl-2,3-dihydro-1H-pyrazole-4-carboxamide] | – |
| > 1000 nM | 140 ± 18.9 nM | – | – | Cc1c(C(=O)Nc2ccc(Oc3ccnc(Nc4ccc(NC(=O)CN5CCN(C)CC5)nc4)n3)cc2)c(=O)n(-c2ccccc2)n1C [compound 17g, 1,5-dimethyl-N-(4-((2-((6-(2-(4-methylpiperazin-1-yl)acetamido)pyridin-3-yl)amino)pyrimidin-4-yl)oxy)phenyl)-3-oxo-2-phenyl-2,3-dihydro-1H-pyrazole-4-carboxamide] | – |
| 11.9 ± 1.7 nM | 45 ± 6.8 nM | – | – | Cc1c(C(=O)Nc2ccc(Oc3ccnc(Nc4ccc(NC(=O)C(C)N5CCN(C)CC5)cc4)n3)cc2)c(=O)n(-c2ccccc2)n1C (centres unmarked) [compound 17h, 1,5-dimethyl-N-(4-((2-((4-(2-(4-methylpiperazin-1-yl)propanamido)phenyl)amino)pyrimidin-4-yl)oxy)phenyl)-3-oxo-2-phenyl-2,3-dihydro-1H-pyrazole-4-carboxamide] | – |
| – | – | – | – | CN1CCN(CC(=O)Nc2ccc(Nc3nccc(Oc4ccc(NC(=O)C5(C(=O)Nc6ccc(F)cc6)CC5)cc4)n3)cc2)CC1 [compound 18c] | oral bioavailability F ([1]; previous study): 2.84% |
